Patent US12502434B2, “Compound comprising EZH2 inhibitor and E3 ligase binder and pharmaceutical composition for preventing or treating EZH2-associated disease comprising same as active ingredient” (DAEGU-GYEONGBUK MEDICAL INNOVATION FOUNDATION, priority 2019, dated 2025)
Each block holds one molecule with its values, some of them ahead of it.

Target: T1, EZH2 protein in LS174T cells (Homo sapiens, UniProt Q15910)
T1 construct: endogenous in cells; host or cells: LS174T
Test: Proteolytic effect in colorectal cancer cells (Western blotting)
Assay type: cell-based
Settings: LS174T cells; for Grade (percent value of the protein degradation when treated with 1 μM) / %, degradation at 1 uM: EZH2 protein, 72 hours; for %, degradation at 1 uM: Western blotting
Description: After 72 hours of the treatment, the cells were collected and lysed using RIPA buffer (50 mM Tris, pH 7.5, 150 mM NaCl, 1% Triton X-100, 0.1% SDS, […], 0.5% deoxycholate, and protease inhibitor cocktail), followed by sonication (30 sec on/30 sec off, 5 cycles) to prepare a cell lysate.

T1 sequence (Q15910 whole entry): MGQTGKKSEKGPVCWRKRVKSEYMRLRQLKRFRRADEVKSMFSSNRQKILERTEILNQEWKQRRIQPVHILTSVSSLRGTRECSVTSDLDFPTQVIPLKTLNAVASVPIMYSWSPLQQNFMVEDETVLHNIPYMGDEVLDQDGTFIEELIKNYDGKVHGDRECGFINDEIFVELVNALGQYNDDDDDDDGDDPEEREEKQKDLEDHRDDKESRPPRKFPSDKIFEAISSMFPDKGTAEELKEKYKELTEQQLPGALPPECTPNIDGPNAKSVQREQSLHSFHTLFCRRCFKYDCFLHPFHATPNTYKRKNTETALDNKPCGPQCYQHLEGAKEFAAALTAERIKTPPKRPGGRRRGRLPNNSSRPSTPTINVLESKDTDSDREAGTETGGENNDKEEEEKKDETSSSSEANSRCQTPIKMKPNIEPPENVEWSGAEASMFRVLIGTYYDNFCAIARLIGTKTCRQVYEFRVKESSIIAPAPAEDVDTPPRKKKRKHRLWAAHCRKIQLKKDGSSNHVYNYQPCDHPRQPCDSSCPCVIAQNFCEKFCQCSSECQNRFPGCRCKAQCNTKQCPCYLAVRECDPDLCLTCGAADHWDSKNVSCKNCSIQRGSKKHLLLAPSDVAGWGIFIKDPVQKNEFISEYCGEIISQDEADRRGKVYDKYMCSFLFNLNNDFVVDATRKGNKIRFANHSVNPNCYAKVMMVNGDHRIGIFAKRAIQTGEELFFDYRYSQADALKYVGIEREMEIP
T1 sequence (O75530 whole entry partner): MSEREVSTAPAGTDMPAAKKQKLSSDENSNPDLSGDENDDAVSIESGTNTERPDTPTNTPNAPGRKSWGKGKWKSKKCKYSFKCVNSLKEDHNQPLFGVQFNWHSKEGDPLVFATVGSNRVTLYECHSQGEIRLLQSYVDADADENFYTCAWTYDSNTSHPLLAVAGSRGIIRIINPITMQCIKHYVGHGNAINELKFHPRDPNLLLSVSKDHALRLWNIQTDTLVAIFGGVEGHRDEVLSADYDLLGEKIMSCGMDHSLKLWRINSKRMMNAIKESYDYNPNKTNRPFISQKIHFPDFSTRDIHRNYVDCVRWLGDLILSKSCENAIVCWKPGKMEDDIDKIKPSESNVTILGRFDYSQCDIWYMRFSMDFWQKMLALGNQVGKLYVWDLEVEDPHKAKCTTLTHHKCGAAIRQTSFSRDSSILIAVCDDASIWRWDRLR
T1 sequence (Q15022 whole entry partner): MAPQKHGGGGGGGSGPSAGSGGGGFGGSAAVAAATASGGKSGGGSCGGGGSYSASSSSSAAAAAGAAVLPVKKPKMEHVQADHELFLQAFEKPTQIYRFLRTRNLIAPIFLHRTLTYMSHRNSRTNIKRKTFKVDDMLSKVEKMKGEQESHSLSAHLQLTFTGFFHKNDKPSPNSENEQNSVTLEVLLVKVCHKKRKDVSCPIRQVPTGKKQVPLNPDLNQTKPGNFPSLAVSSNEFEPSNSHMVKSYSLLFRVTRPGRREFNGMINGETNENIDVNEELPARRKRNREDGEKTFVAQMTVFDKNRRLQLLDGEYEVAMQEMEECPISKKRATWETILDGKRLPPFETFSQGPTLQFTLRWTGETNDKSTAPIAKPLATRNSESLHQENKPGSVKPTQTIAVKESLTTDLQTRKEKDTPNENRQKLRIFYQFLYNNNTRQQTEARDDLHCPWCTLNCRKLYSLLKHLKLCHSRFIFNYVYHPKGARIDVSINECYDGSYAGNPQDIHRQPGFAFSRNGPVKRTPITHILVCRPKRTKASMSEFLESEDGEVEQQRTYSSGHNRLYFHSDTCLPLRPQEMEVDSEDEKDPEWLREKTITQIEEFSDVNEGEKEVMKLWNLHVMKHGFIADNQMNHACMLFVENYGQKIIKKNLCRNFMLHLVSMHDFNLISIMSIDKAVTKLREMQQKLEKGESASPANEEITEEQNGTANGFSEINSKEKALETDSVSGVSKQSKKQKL

Grade (percent value of the protein degradation when treated with 1 μM): D (<25%) | %, degradation at 1 uM: 0%
Compound: CCN(c1cc(-c2ccc(CN3CCN(CC(=O)NCCCCCCNc4cccc5c4C(=O)N(C4CCC(=O)NC4=O)C5)CC3)cc2)cc(C(=O)NCc2c(C)cc(C)[nH]c2=O)c1C)C1CCOCC1 (centres unmarked) [Example 22, N-((4,6-dimethyl-2-oxo-1,2-dihydropyridine-3-yl)methyl)-4′-((4-(2-((6-((2-(2,6-dioxopiperidine-3-yl)-3-oxoisoindoline-4-yl)amino)hexyl)amino)-2-oxoethyl)piperazine-1-yl)methyl)-5-(ethyl(tetrahydro-2H-pyran-4-yl)amino)-4-methyl-[1,1′-biphenyl]-3-carboxamide]

Grade (percent value of the protein degradation when treated with 1 μM): D (<25%) | %, degradation at 1 uM: 0%
Compound: CCN(c1cc(-c2ccc(CN3CCN(CC(=O)NCCCCCOCCCOCC(=O)Nc4cccc5c4C(=O)N(C4CCC(=O)NC4=O)C5=O)CC3)cc2)cc(C(=O)NCc2c(C)cc(C)[nH]c2=O)c1C)C1CCOCC1 (centres unmarked) [Example 28, N-((4,6-dimethyl-2-oxo-1,2-dihydropyridine-3-yl)methyl)-4′-((4-(2-((5-(3-(2-((2-(2,6-dioxopiperidine-3-yl)-1,3-dioxoisoindoline-4-yl)amino)-2-oxoethoxy)propoxy)pentyl)amino)-2-oxoethyl)piperazine-1-yl)methyl)-5-(ethyl(tetrahydro-2H-pyran-4-yl)amino)-4-methyl-[1,1′-biphenyl]-3-carboxamide]

More lines, now with the values behind:

Compound: CCN(c1cc(-c2ccc(CN3CCN(C(=O)c4cn(CCCCC(=O)N[C@H](C(=O)N5C[C@H](O)C[C@H]5C(=O)NCc5ccc(-c6scnc6C)cc5)C(C)(C)C)nn4)CC3)cc2)cc(C(=O)NCc2c(C)cc(C)[nH]c2=O)c1C)C1CCOCC1 [Example 48, (2S,4R)-1-((S)-2-(5-(4-(4-((3′-(((4,6-dimethyl-2-oxo-1,2-dihydropyridine-3-yl)methyl)carbamoyl)-5′-(ethyl(tetrahydro-2H-pyran-4-yl)amino)-4′-methyl-[1,1′-biphenyl]-4-yl)methyl)piperazine-1-carbonyl)-1H-1,2,3-triazole-1-yl)pentanamido)-3,3-dimethylbutanoyl)-4-hydroxy-N-(4-(4-methylthiazole-5-yl)benzyl)pyrrolidine-2-carboxamide]
Grade (percent value of the protein degradation when treated with 1 μM): D (<25%) | %, degradation at 1 uM: 5.74% | effect of degrading EZH2 protein when treated to colorectal cancer cells (in words): excellent effects

Compound: CCN(c1cc(-c2ccc(CN3CCN(CC(=O)NCCOCCCN[C@H](C(=O)N4C[C@H](O)C[C@H]4C(=O)NCc4ccc(-c5scnc5C)cc4)C(C)(C)C)CC3)cc2)cc(C(=O)NCc2c(C)cc(C)[nH]c2=O)c1C)C1CCOCC1 [Example 40, (2S,4R)-1-((S)-2-((3-(2-(2-(4-((3′-(((4,6-dimethyl-2-oxo-1,2-dihydropyridine-3-yl)methyl)carbamoyl)-5′-(ethyl(tetrahydro-2H-pyran-4-yl)amino)-4′-methyl-[1,1′-biphenyl]-4-yl)methyl)piperazine-1-yl)acetamido)ethoxy)propyl)amino)-3,3-dimethylbutanoyl)-4-hydroxy-N-(4-(4-methylthiazole-5-yl)benzyl)pyrrolidine-2-carboxamide]
Grade (percent value of the protein degradation when treated with 1 μM): D (<25%) | %, degradation at 1 uM: 0%

Compound: CCN(c1cc(-c2ccc(CN3CCN(CC(=O)NCCCCNc4cccc5c4C(=O)N(C4CCC(=O)NC4=O)C5=O)CC3)cc2)cc(C(=O)NCc2c(C)cc(C)[nH]c2=O)c1C)C1CCOCC1 (centres unmarked) [Example 3, N-((4,6-dimethyl-2-oxo-1,2-dihydropyridine-3-yl)methyl)-4′-((4-(2-((4-((2-(2,6-dioxopiperidine-3-yl)-1,3-dioxoisoindoline-4-yl)amino)butyl)amino)-2-oxoethyl)piperazine-1-yl)methyl)-5-(ethyl(tetrahydro-2H-pyran-4-yl)amino)-4-methyl-[1,1′-biphenyl]-3-carboxamide]
Grade (percent value of the protein degradation when treated with 1 μM): D (<25%) | %, degradation at 1 uM: 13.61%
